US20260216109A1, “TREATMENT OF SKIN DISORDERS WITH SHORT CHAIN FATTY ACIDS” (Temple University-Of The Commonwealth System of Higher …, priority 2023, published 2026)

Legend:
[1] = test system: IL-17A; experiment: Multiplex (MSD V-PLEX) cytokine release, InflammaSkin: IL-17A; format: cell-based, human; settings: Day 7 supernatant, 0.05% Betamethasone topical, vs untreated InflammaSkin
Procedure: (§1) A total of 16 biopsies of 15 mm diameter were produced from a single donor. Two NativeSkin® models with 12/15 mm silicon rings were produced from the biopsies according to standard procedures in place, and cultured under cell culture conditions (37° C., 5% CO2, max. humidity) for 7 days with 2 mL of standard NativeSkin® medium renewed every day. Fourteen PSO-InflammaSkin® models with 12/15 mm silicon rings were produced by inducing in situ activation and Th17/Th1 polarization of skin resident T cells with a proprietary cocktail, and cultured under cell culture conditions (37° C., 5% CO2, max. humidity) for 7 days with 2 mL of PSO-InflammaSkin® culture medium renewed every day.
(§2) From Day 1 to Day 6, models were systemically treated with 1 μM Otezla or Short Chain Fatty Acids (SCFAs), or topically treated with positive control 0.05% Betamethasone
(§3) In these experiments, the SCFAs administered were 45 μg/mL of Ca-propionate and 1 mM mixture of salts (Ca-butyrate and Mg-butyrate).
At Day 7, supernatants were collected and stored at −80° C. and skin models of all conditions were carefully unmolded. […]
Human pro-inflammatory cytokines released in the supernatant were quantified using the V-PLEX Human IL-17A Kit (MesoScale Discovery, reference: K151RFD-1) and V-PLEX Human TNFα Kit (MesoScale Discovery, reference: K151QWD-1). […]
(§4) Human pro-inflammatory cytokines released in the supernatant were quantified using the V-PLEX Human IL-17A Kit (MesoScale Discovery, reference: K151RFD-1) and V-PLEX Human custom Pro-inflammatory. […]
(§5) Samples were diluted four times for plate 2 and two times for plate 1. Samples and standards were assessed in duplicate. Plates were read on MesoScale Discovery Quickpleax SQ 120 plate reader and values expressed in pg/mL.
(§6) A statistical analysis was performed. […] First, the distribution's normality of the two compared group was assessed. […] If the two distributions were normal, the homogeneity of variances was assessed using a Fisher test on the variances. […]

[2] = test system: TNF-α; experiment: Multiplex (MSD V-PLEX) cytokine release, InflammaSkin: TNF-α; format: cell-based, human
Procedure: as §1, §2, §3
At Day 7, supernatants were collected and stored at −80° C. and skin models of all conditions were carefully unmolded. Skin biopsies were re-punched to eliminate the area under the silicon ring, fixed in 10% buffered formalin and processed for paraffin wax embedding.
Human pro-inflammatory cytokines released in the supernatant were quantified using the V-PLEX Human IL-17A Kit (MesoScale Discovery, reference: K151RFD-1) and V-PLEX Human TNFα Kit (MesoScale Discovery, reference: K151QWD-1). Values are expressed in pg/mL. For each condition, single values, mean and SEM were plotted using GraphPad Prism. Statistical analysis was performed using a One Way ANOVA test.
PSO-InflammaSkin® models were cultured and treated as described in Example 1. In these experiments, the SCFAs administered were 45 μg/mL of Ca-propionate and 1 mM mixture of salts (Ca-butyrate and Mg-butyrate).
Human pro-inflammatory cytokines released in the supernatant were quantified using the V-PLEX Human IL-17A Kit (MesoScale Discovery, reference: K151RFD-1) and V-PLEX Human custom Pro-inflammatory. Plate 1 comprised Proinflammatory Panel 1 (human) kit reference K15049 (panel IFN-γ and TNF-α). Plate 2 comprised TH17 Panel 1 (human) kit reference K15049 (panel IL-17A Gen B, IL-21, IL-22, IL-23, IL-27, IL-31, MIP-3α).
as §5
A statistical analysis was performed. Each condition was compared to the untreated InflammaSkin® condition. First, the distribution's normality of the two compared group was assessed. […] If the two distributions were normal, the homogeneity of variances was assessed using a Fisher test on the variances. […]

[3] = test system: IL-21; experiment: Multiplex (MSD V-PLEX) cytokine release, InflammaSkin: IL-21; format: cell-based, human; settings: Example 2; 1 μM Otezla systemic; compared to untreated InflammaSkin
Procedure: A total of 16 biopsies of 15 mm diameter were produced from a single donor. Two NativeSkin® models with 12/15 mm silicon rings were produced from the biopsies according to standard procedures in place, and cultured under cell culture conditions (37° C., 5% CO2, max. humidity) for 7 days with 2 mL of standard NativeSkin® medium renewed every day. Fourteen PSO-InflammaSkin® models with 12/15 mm silicon rings were produced by inducing in situ activation and Th17/Th1 polarization of skin resident T cells with a proprietary cocktail, and cultured under cell culture conditions (37° C., 5% CO2, max. humidity) for 7 days with 2 mL of PSO-InflammaSkin® culture medium renewed every day. […]
as §4, §5, §6

[4] = test system: TNF-α; experiment: ELISA analysis of TNF-α, InflammaSkin; format: cell-based, human; settings: Example 2; Otezla-treated InflammaSkin; FIG. 20
[5] = test system: imiquimod (IMQ)-induced psoriasis model mice; experiment: Ear skin thickness, IMQ-induced psoriasis model in mice; format: in vivo, mouse
Procedure: Topical application of IMQ, a TLR7/8 ligand and potent immune activator induced and exacerbated psoriasis in mice. The mouse IMQ-induced psoriasis (IMQ Ps) model was initiated by a repeated topical application of Aldara© cream (containing 5% IMQ) over 6 consecutive days. Female Balb/c mice (9 weeks of age at reception, ordered with 20 g, Charles River, Sulzfeld, Germany; n=10 mice/group, exception healthy controls n=4) received daily a topical application of 62.5 mg of commercially available IMQ cream (5% Aldara©) on the beforehand (day −1) shaved (~2 cm×3 cm), depilated (Pilka© cream) back skin, and 7 mg on the outer right ear skin for 6 consecutive days, translating in a daily dose of approximately 3.5 mg IMQ. Healthy control mice were included in the study and were treated with vehicle cream (Vaseline; Bombastus-Werke AG) only instead of IMQ. Additionally, an IMQ disease control group was also included.
Before starting treatment on the day of disease induction (day 0), mice were randomized based on body weight to the respective group. […]
The added-up score (erythema plus scaling plus thickening), named disease severity score (scale 0-9), served then as marker for the severity of back skin inflammation. In addition, ear thickness of the right ear was determined daily by using an automatized caliper (Bayer AG, Germany).
Disease Severity Score was evaluated on a daily base starting with the induction of psoriasis by IMQ application (day 0) until the end (day 6) of the study. The extent of ear thickness of the IMQ-treated right ear was determined daily by using an automatized caliper (Bayer AG, Germany) as described in Example 4.
Ear thickening, one of the disease severity score parameters, was evaluated in IMQ-treated mice (FIG. 60 and FIG. 61). The extent of ear thickness of the IMQ-treated right ear was determined daily by using an automatized caliper (Bayer AG, Germany) as described in Example 4.

[6] = Observations of animal well-being in IMQ-induced psoriasis model mice; format: in vivo, mouse

CCOc1cc([C@@H](CS(C)(=O)=O)N2C(=O)c3cccc(NC(C)=O)c3C2=O)ccc1OC [Otezla, Apremilast]
IL-17A levels decreased by ([1]; Example 1, 1 μM Otezla or SCFA (45 μg/mL Ca-propionate + 1 mM Ca-/Mg-butyrate) systemic): about 95% | IL-17A secretion ([1]; Example 2, 1 μM Otezla or SCFA systemic): significantly reduced | increase of the release of TNF-α ([2]; Example 1, Day 7 supernatant, 1 μM Otezla systemic, vs untreated InflammaSkin): ~2 fold | TNFα secretion ([2]; Example 2, Day 7 supernatant, 1 μM Otezla or SCFA systemic, 0.05% Betamethasone topical, vs untreated InflammaSkin): significantly increased | TNFα level (by MSD) ([2]; Example 2, Otezla-treated InflammaSkin (untreated about 1 μg/mL)): about 2 μg/mL | increase of secretion of IL-21 [3]: about 50% | TNFα level (by ELISA) [4]: ~13 pg/mL | ear thickness ([5]; Example 7, Apremilast low dose (2.5 mg/kg BID), oral, alone): did not show any inhibitory influence on ear thickness | ear thickness ([5]; Example 7, Apremilast mid and high dose (5 and 7 mg/kg BID), oral, alone): inhibited | ear thickness ([5]; Example 12, day 6, Apremilast monotherapy, both doses (12 mg/kg and 25 mg/kg BID)): did not show any inhibitory influence on ear thickness at day 6 | observations of animal well-being ([6]; Example 4, SCFA fixed dose BID (120 + 2,146 mg/kg/day), Apremilast 50 mg/kg/day, oral, study duration): reduced activity, ruffled coat and were slightly hunched | observations of animal well-being ([6]; Example 7, SCFA (120 + 1,100 mg/kg/day), Apremilast 2.5, 5, 7 mg/kg BID, or combinations, study duration): well tolerated | observations of animal well-being ([6]; Example 8 (written in present tense), SCFA, Apremilast 2.5, 5, 7 mg/kg BID, or combinations): well tolerated | observations of animal well-being ([6]; Example 9, SCFA fixed dose, Apremilast 25 mg/kg BID, or combination, study duration): well tolerated | observations of animal well-being ([6]; Example 10 (written in present tense), SCFA, Apremilast 25 mg/kg BID, or combination): well tolerated | observations of animal well-being ([6]; Example 12, SCFA fixed dose, Apremilast 12 or 25 mg/kg BID, or combinations, study duration): well tolerated
